These results are taken from patent US4239747A, “Dicarboxylic acid bis(3,5-dicarbamoyl-2,4,6-triiodoanilides) useful as x-ray contrast agents” (Schering Aktiengesellschaft, priority 1976, dated 1980).

Converted amounts (≈) assume the structure as drawn. Where two headings read alike, the source gives them in different places.

A short description of data set [1]: Osmotic pressure and osmolality of solutions of identical iodine concentration (300 mg. Iodine/ml.). Format: physicochemical. Conditions: at 37° C. The text has this:
The novel compounds are distinguished from other compounds by a lower diffusibility on account of their size.
Concentration, Osmotic Pressure, and Osmolality of Solutions of Identical

Data set [2] can be described thus: Solubility in water. It is filed as physicochemical. As to conditions: for solubility: water.
Data set [3] has as its system mice. As to the kind of experiment: Compatibility after intravenous injection in mice. It is filed as in vivo.
Data set [4] concerns erythrocytes. In words: Effect of the contrast media on erythrocyte morphology. As to conditions: 43 mg. Iodine/ml. Blood; score 0 (intact) to 5 (highest damage).
Description: Contrast medium solutions containing 300 mg. iodine/ml. were mixed in a ratio of 1:6 with heparinized blood. The final concentration of the contrast media was 43 mg. iodine/ml. The evaluation criterion was the change of the natural shape of the erythrocytes via echinocytes to spherocytes.
Data set [5] relates to mice. In words: Compatibility after intravenous injection in mice. It is filed as in vivo. Conditions: for Mortality/survival after intravenous injection: 6-10 mice, 10 g. iodine/kg, 300 mg. iodine/ml., 0.8 ml./min. As to the method: 1. Compatibility After Intravenous Injection
Each of 6-10 mice weighing 20-22 g. was injected intravenously with the contrast medium being tested in the form of a solution at a concentration of 300 mg. of iodine/ml., a dosage of 10 g. iodine/kg. and an injection rate of 0.8 ml./min. Ionic agents were given as meglumine salts.

The nature of data set [6]: Protein binding, human plasma (ultrafiltration method). It is filed as in vitro ADME. As to conditions: human, plasma. As to the method:
(§1) Binding of contrast media to proteins of human plasma was determined at a final plasma concentration of 1.2 mg. iodine/ml. using the ultrafiltration method. The novel, nonionic dimer E was bound only to a very minor extent of 1.4±2.4%.

The subject of data set [7] is proteins of human plasma. The description is as above. Format: in vitro ADME. As to conditions: n = 6; 1.2 mg. Iodine/ml.; ultrafiltration. As to the method: as §1
Data set [8] has as its system rats. Format: in vivo. As to conditions: 10 rats; 50 mg. iodine/ml.; 0.4 ml./kg. As to the method:
In a further evaluation according to Valzelli, "A Simple Method to Inject Drugs Intracerebrally;" Med. Exp. Vol. 11: 23-26, (1964), each of 10 rats (90-110 g.) were injected intracerebrally with contrast medium solutions of compounds A-E at an iodine concentration of 50 mg./ml. in a dosage of 0.4 ml./kg. Toxic effects of compounds A-D included grave anomalies in posture (attitude), torsional spasms, excitation, and death.

For data set [9] the following is noted: background statement; cited from earlier work.
The conditions of data set [10]: background statement; cited from earlier work. The source holds these as a separate data set.
Where [11] appears, read: n = 6, 1.2 mg. Iodine/ml., ultrafiltration, read-out: Protein Binding Human Plasma (converted).

`CN(CC(O)CO)C(=O)c1c(I)c(C(=O)N(C)CC(O)CO)c(I)c(N(C)C(=O)CC(=O)N(C)c2c(I)c(C(=O)N(C)CC(O)CO)c(I)c(C(=O)N(C)CC(O)CO)c2I)c1I` (stereo not drawn) [Example 9, Malonic Acid bis[3,5-bis(2,3-Dihydroxypropyl-N-methylcarbamoyl)-2,4,6-triiodo-N-methylanilide]]: in data set [1], the Osmolality worked out at 197 mOsm/kg . H2 O and the “Osmotic Pressure” value is reported as 5.0 at. Moreover, the Solubility in water entry in data set [2] was “more than 60 g./150 ml. of solution”.
Consider `CN(CC(O)CO)C(=O)c1c(I)c(NC(=O)COCCOCC(=O)Nc2c(I)c(C(=O)N(C)CC(O)CO)c(I)c(C(=O)N(C)CC(O)CO)c2I)c(I)c(C(=O)N(C)CC(O)CO)c1I` (stereo not drawn) [Example 12, 3,6-Dioxasuberic Acid bis[3,5-bis(2,3-Dihydroxypropyl-N-methylcarbamoyl)-2,4,6-triiodoanilide]], for which, in data set [1], the Osmolality is reported as 216 mOsm/kg . H2 O and the “Osmotic Pressure” value came out at 5.5 at. For the same compound, the “Compatibility After i.v. Injection in Mice, LD50” value in [3] is recorded as 22 g. Iodine/kg. Also, the “Effect on Erythrocyte Morphology, Damage Index” value in data set [4] is on record as 0.13.
On to `CN(CC(O)CO)C(=O)c1c(I)c(NC(=O)C(=O)Nc2c(I)c(C(=O)N(C)CC(O)CO)c(I)c(C(=O)N(C)CC(O)CO)c2I)c(I)c(C(=O)N(C)CC(O)CO)c1I` (stereo not drawn) [Example 1, oxalic acid bis[3,5-bis(2,3-dihydroxypropyl-N-methylcarbamoyl)-2,4,6-triiodoanilide]], for which, in [1], the Osmolality is on record as 175 mOsm/kg . H2 O and the “Osmotic Pressure” value is recorded as 4.5 at. The “Mortality/survival after intravenous injection” value in [5] is “All mice survived”. In addition, the fraction unbound in data set [6] (setting [11]) was 0.986. The “Protein Binding Human Plasma” value in data set [7] is 1.4±2.4%. In addition, the “Toxic effects after intracerebral injection” value in data set [8] is recorded as “caused none of these effects in any of the animals”. Further, the solubility in data set [2] (room temperature) is > 600 mg/mL. Also, the “Compatibility After i.v. Injection in Mice, LD50” value in data set [3] was found to be 20 g. Iodine/kg. Moreover, in data set [4], the “Effect on Erythrocyte Morphology, Damage Index” value was 0.33.
As for `CNC(=O)c1c(I)c(NC(=O)CCCCC(=O)Nc2c(I)c(C(=O)O)c(I)c(C(=O)NC)c2I)c(I)c(C(=O)O)c1I` [Meglumine Iocarmate], in [1], the Osmolality is reported as 1260 mOsm/kg . H2 O and the “Osmotic Pressure” value was found to be 32.0 at. Besides, the fraction unbound in data set [6] (setting [11]) is 0.908. Also, the “Compatibility After i.v. Injection in Mice, LD50” value in data set [3] came out at 6.5 g. Iodine/kg. Further, the “Resulting concentration in the urine” value in data set [9] is “relatively high resulting concentration in the urine”. In addition, the “Osmotic pressure, relative” value in data set [10] was “somewhat lower osmotic pressure”. In addition, the “Effect on Erythrocyte Morphology, Damage Index” value in [4] is 1.37.
On to `CN(CC(O)CO)C(=O)c1c(I)c(NC(=O)CCCCC(=O)Nc2c(I)c(C(=O)N(C)CC(O)CO)c(I)c(C(=O)N(C)CC(O)CO)c2I)c(I)c(C(=O)N(C)CC(O)CO)c1I` (stereo not drawn) [Example 10, Adipic Acid bis[3,5-bis(2,3-Dihydroxypropyl-N-methylcarbamoyl)-2,4,6-triiodoanilide]], for which the “Compatibility After i.v. Injection in Mice, LD50” value in data set [5] (i.v., mice, determined with supersaturated solution) came to 30 g. Iodine/kg. Besides, in [2], the “Solubility behaviour in words” value is “yields supersaturated solutions” and the concentration in solution (solubility) was 130 mg/mL (≈ 82.5 mM). For the same compound, the “Effect on Erythrocyte Morphology, Damage Index” value in [4] worked out at 0.11.
For the compound `CC(=O)Nc1c(I)c(NC(C)=O)c(I)c(C(=O)O)c1I` [Meglumine Amidotrizoate], in data set [1], the Osmolality is reported as 1520 mOsm/kg . H2 O and the “Osmotic Pressure” value was 38.6 at. Further, in data set [6] (setting [11]), the fraction unbound is 0.968. In addition, in data set [3], the “Compatibility After i.v. Injection in Mice, LD50” value was 6.5 g. Iodine/kg. In addition, the “Effect on Erythrocyte Morphology, Damage Index” value in [4] came out at 2.57.
With `CC(=O)Nc1c(I)c(C(=O)N[C@H]2C(O)O[C@H](CO)[C@@H](O)[C@@H]2O)c(I)c(N(C)C(C)=O)c1I` (stereo partly drawn) [Metrizamide, 2-(3-acetamido-5-N-methylacetamido-2,4,6-triiodobenzamido)-2-deoxy-D-glucose], in data set [1], the Osmolality is on record as 485 mOsm/kg . H2 O and the “Osmotic Pressure” value is 12.3 at. For the same compound, the “Mortality/survival after intravenous injection” value in data set [5] was “one animal died”. Moreover, the fraction unbound in data set [6] was 0.938. Besides, the “Compatibility After i.v. Injection in Mice, LD50” value in data set [3] amounted to 14 g. Iodine/kg.
With `CNC(=O)c1c(I)c(NC(C)=O)c(I)c(C(=O)O)c1I` [Meglumine Iothalamate], in data set [1], the Osmolality came out at 1650 mOsm/kg . H2 O and the “Osmotic Pressure” value is 41.9 at. The fraction unbound in [6] was 0.948. Also, the “Compatibility After i.v. Injection in Mice, LD50” value in data set [3] is given as 6.5 g. Iodine/kg.
In the case of `CN(CC(O)CO)C(=O)c1c(I)c(C(=O)N(C)CC(O)CO)c(I)c(N(C)C(=O)COCC(=O)N(C)c2c(I)c(C(=O)N(C)CC(O)CO)c(I)c(C(=O)N(C)CC(O)CO)c2I)c1I` (stereo not drawn) [Example 8, Oxaglutaric Acid bis[3,5-bis(2,3-Dihydroxypropyl-N-methylcarbamoyl)-2,4,6-triiodo-N-methylanilide]], in data set [2], the solubility is > 600 mg/mL. Moreover, in data set [3], the “Compatibility After i.v. Injection in Mice, LD50” value came to 10 g. Iodine/kg. Besides, the “Effect on Erythrocyte Morphology, Damage Index” value in data set [4] is given as 0.09.
As to `O=C(CCCCC(=O)Nc1c(I)c(C(=O)NC(CO)CO)c(I)c(C(=O)NC(CO)CO)c1I)Nc1c(I)c(C(=O)NC(CO)CO)c(I)c(C(=O)NC(CO)CO)c1I` [Example 11, Adipic Acid bis[3,5-bis(1,3-Dihydroxyisopropylcarbamoyl)-2,4,6-triiodoanilide]], the solubility in [2] was < 1 mg/mL.

In general, solubility refers to the concentration that dissolves in the medium under given conditions. The low end stands for little dissolved substance, the high end for much dissolved substance.
